# Reference: PubChem BioAssay AID588780 (Sanford-Burnham Center for Chemical Genomics, 2011)
# Active and inactive are the calls of the source.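 How the source made its calls: active means compounds whose fitted half-maximal concentration in the cell-protection dose series is at or below a set limit; inactive means the rest.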
# Tested on: H9c2 cardiomyocytes, 2-deoxyglucose stress, ATP luminescence, 2 h
# Assay: protection of cardiomyocytes from 2-deoxyglucose injury, dose response, cell-based, 2-deoxyglucose stress, uHTS hits (AID 588780)
row,Structure (SMILES),IC50
1,C[C@@H]1ON(C)[C@H]2C[C@H]3c4[nH]c5ccc(-c6ccc7c(c6)OCO7)cc5c4CCN3C[C@@H]12,54.8 µM (inactive)
2,Cc1ccc(NC(=O)c2nc[nH]c2C(=O)NCCCCCNC(=O)OC(C)(C)C)cc1,> 79 µM (inactive)
3,Nc1cc2[nH]c(=O)c3ccccc3c2cc1Br,> 79 µM (inactive)
4,COc1cc(/C=N/NC(=O)c2ccncc2)ccc1OC(=O)c1ccccc1Cl,> 79 µM (inactive)
5,O=C(N/N=C/c1ccccn1)c1cccc([N+](=O)[O-])c1,> 79 µM (inactive)
6,Cc1ccc(CN(C(=O)CNC(=O)c2cccs2)C(C(=O)NCC2CCCO2)c2ccccc2)cc1 (configuration not stated),14.1 µM
7,COCCCn1c(C)nc2c(c1=O)c1nc3ccccc3nc1n2CCc1ccccc1,> 79 µM (inactive)
8,O=c1c(O)c(-c2cccs2)oc2ccc(Cl)cc12,20.6 µM
9,O=c1[nH]c(NCc2ccccc2)nc2c1CCCC2,> 79 µM (inactive)
10,COc1cccc(OC)c1-c1nn2c(-c3ccco3)nnc2s1,> 79 µM (inactive)
11,CC(C)NC(=O)COC(=O)Cn1[nH]c(=O)c2ccccc2c1=O,> 79 µM (inactive)
12,COc1ccc(OC)c(NC(=O)COC(=O)c2c3c(nc4ccccc24)CCCC3)c1,> 79 µM (inactive)
13,O=C(/C=C\c1cn(-c2ccccc2)nc1-c1ccc2c(c1)OCCO2)N1CCOCC1,> 79 µM (inactive)
14,CCN(C[C@H]1N[C@@](CC)(C(=O)OC)[C@H]2C(=O)N(Cc3ccccc3)C(=O)[C@@H]12)S(=O)(=O)c1ccc(F)cc1,> 79 µM (inactive)
15,COCCN1CCN(c2c3c(nc4cc(-c5cccc(F)c5)nn24)CCC3)CC1,60.1 µM (inactive)
16,CCOc1ccc2[nH]c(=O)c(CN(Cc3nnnn3Cc3ccco3)C3CCCCC3)cc2c1,> 79 µM (inactive)
17,NC(=O)c1nsc(C(=O)N(Cc2ccco2)C(C(=O)NCc2ccccc2)c2ccc(O)cc2)c1N (configuration not stated),10.1 µM
18,O=C(Nc1ccc2oc(-c3ccccc3F)nc2c1)c1ccc([N+](=O)[O-])o1,> 79 µM (inactive)
19,CCOc1cc(NC(=O)C2CC2)c(OCC)cc1NC(=O)c1ccccn1,> 79 µM (inactive)
20,COc1cc(-c2cc(NC=O)c3ncc(-c4ccc(C(C)=O)cc4)n3c2)ccc1O,> 79 µM (inactive)
21,COc1cccc(-c2cnc3c(NC(C)=O)cc(-c4cccc(NS(C)(=O)=O)c4)cn23)c1,> 79 µM (inactive)
22,C=CC[C@@H](CC(=O)NCCO)C(=O)NC[C@H](OC(=O)[C@@H](CC=C)Cc1ccc(F)cc1)c1ccccc1,> 79 µM (inactive)
23,COc1cc(/C=N\NC(=O)c2cccnc2)ccc1OC(=O)c1ccccc1Cl,> 79 µM (inactive)

row,Structure (SMILES),IC50
1,Cc1cc(NC(=O)C2CCCCC2)nc2c1c(=O)oc1ccccc12,15.3 µM
2,Oc1c(Br)cc(Br)cc1C=Nc1ccc2c(c1)OCCO2,24.4 µM
3,CCC(c1nnnn1Cc1ccco1)N(Cc1cc2cc(C)cc(C)c2[nH]c1=O)CC1CCCO1 (configuration not stated),> 79 µM (inactive)
4,COc1ccc(C(=O)NNC(=O)c2ccc3ccccc3n2)cc1,> 79 µM (inactive)
5,CN(C)N(Cc1ccccc1)C(=O)C(O)(c1ccccc1)c1ccccc1,> 79 µM (inactive)
6,COc1ccccc1NS(=O)(=O)c1cccc(C(=O)N/N=C/c2c(CO)cnc(C)c2O)c1,31.8 µM (inactive)
7,O=C(Nc1nc(-c2ccccn2)cs1)c1cccc(-n2cnnn2)c1,> 79 µM (inactive)
8,COc1ccc2[nH]c(=O)c(CN(CC3CCCO3)S(=O)(=O)c3ccccc3F)cc2c1 (configuration not stated),15.9 µM
9,Oc1c(Br)cc(Br)cc1C=Nc1cccc2ncccc12,27.3 µM
10,COCc1c(C(=O)Nc2ccc3nc(N4CCOCC4)sc3c2)oc2ccccc12,> 79 µM (inactive)
11,CCN(CC)c1ccc(C2C(C(=O)OC(C)C)C(=O)CC(C)(O)C2C(=O)OC(C)C)cc1 (configuration not stated),18.2 µM
12,CCCCNC(=O)c1cn(-c2ccc(OCC)cc2)c(=O)c2cc(OC)c(OC)cc12,41.7 µM (inactive)
13,O=C(COc1cccc2c1CCNC2=O)Nc1ccc(Cl)cc1,> 79 µM (inactive)
14,CC(C)(C)C(=O)Nc1cccc(-c2nnc(-c3cccc(NC(=O)C(C)(C)C)c3)o2)c1,> 79 µM (inactive)
15,COc1cc(/C=C(\C#N)c2nc3ccc(C)cc3[nH]2)c([N+](=O)[O-])cc1OC,18 µM
16,COc1ccc(-c2cc(NC(C)=O)c3ncc(-c4cccc(C(C)=O)c4)n3c2)cc1OC,7.56 µM
17,Cc1ccc(-c2nnc(NCc3nc4ccccc4[nH]3)c3ccccc23)cc1S(=O)(=O)N1CCOCC1,> 79 µM (inactive)
18,COc1cc(NC(=O)c2cc3nc(-c4ccccc4)cc(-c4ccccc4)n3n2)cc(OC)c1OC,> 79 µM (inactive)
19,O=C(Nc1ccc2nc(N3CCOCC3)sc2c1)c1cc2ccccc2o1,> 79 µM (inactive)
20,O=C(COC(=O)c1c2c(nc3ccccc13)/C(=C/c1cccc([N+](=O)[O-])c1)CCC2)NC1CCS(=O)(=O)C1 (configuration not stated),13.4 µM
21,O=C(NCc1ccco1)c1cnn2c(C(F)(F)F)cc(-c3cccs3)nc12,> 79 µM (inactive)
22,COc1ccccc1C(=O)NC(=O)COC(=O)Cn1[nH]c(=O)c2ccccc2c1=O,> 79 µM (inactive)
23,COc1ccc(-c2cc(NC=O)c3ncc(-c4cccc(C(C)=O)c4)n3c2)cc1,> 79 µM (inactive)

row,Structure (SMILES),IC50
1,CCn1nc(C(=O)OCC(=O)c2c[nH]c3ccccc23)c2ccccc2c1=O,11.6 µM
2,CCOC(=O)c1cccc(Nc2nc(-c3cccnc3)nc3ccccc23)c1,29.1 µM
3,COc1ccc2c(c1OC)c(=O)n1c3ccc(OC(C)C(=O)NCCN4CCOCC4)cc3c3ccnc2c31 (configuration not stated),29.3 µM
4,CCOC(=O)C1CCN(c2cc3c(cc2NC(=O)c2ccc(OC)c(OC)c2)n(C)c(=O)n3C)CC1,> 79 µM (inactive)
5,COc1ccc(-c2cc3nc(-c4ccccc4)cc(N4CCN(C(C)=O)CC4)n3n2)cc1,12 µM
6,Oc1ccc(Cl)cc1C=Nc1ccc(Br)cc1,> 79 µM (inactive)
7,COc1ccc(Cc2n[nH]c(=O)c3ccccc23)cc1OC,> 79 µM (inactive)
8,Nc1nc(-c2c[nH]c3ccccc23)cs1,> 79 µM (inactive)
9,Cc1c(-c2ccccc2)oc2c(C(=O)OCC(=O)Nc3ccc(C(N)=O)cc3)cccc2c1=O,9.94 µM
10,COc1ccc(-c2nn3c(-c4ccco4)nnc3s2)cc1OC,33.8 µM (inactive)
11,O=C(Cn1[nH]c(=O)c2ccccc2c1=O)N1CC=C(c2ccccc2)CC1,21 µM
12,COc1ccc(C(=O)O/N=C(/c2ccccc2)c2ccncc2)cc1OC,> 79 µM (inactive)
13,Cc1cccc(NC(=O)c2oc3ccc(S(=O)(=O)N4CCOCC4)cc3c2C)c1C,> 79 µM (inactive)
14,COC(=O)c1ccccc1S(=O)(=O)N(Cc1ccco1)Cc1cc2cc(OC)ccc2[nH]c1=O,15.4 µM
15,CCCN1CCN(C(=O)CCc2nnc3ccc(N4CCN(c5cccc(OC)c5)CC4)nn23)CC1,> 79 µM (inactive)
16,COc1ccc(C(=O)COC(=O)Cc2n[nH]c(=O)c3ccccc23)c(OC)c1,> 79 µM (inactive)
17,Nc1ccc2nc(-c3cccs3)[nH]c2c1,> 79 µM (inactive)
18,NC(=O)c1cccc(Nc2nc(C(N)CCc3ccccc3)cs2)n1 (configuration not stated),> 79 µM (inactive)
19,COc1cc(-c2cc(C(=O)NCc3ccco3)c3ccccc3n2)cc(OC)c1OC,16.6 µM
20,NS(=O)(=O)c1cccc(NC(=O)COC(=O)Cc2n[nH]c(=O)c3ccccc23)c1,> 79 µM (inactive)
21,CC(=O)Nc1cccc(NC(=O)c2cc(-c3cccnc3)nc3ccc(Br)cc23)c1,> 79 µM (inactive)
22,Cc1ccc(NS(=O)(=O)c2cc(-c3n[nH]c(=O)c4ccccc34)ccc2C)cc1,> 79 µM (inactive)
23,CCN1C(=O)[C@H]2[C@@H](c3ccc(-c4ccc(C(C)=O)cc4)cc3)N[C@@](C)(C(=O)OC)[C@H]2C1=O,> 79 µM (inactive)

row,Structure (SMILES),IC50
1,CC1Cc2ccccc2N1C(=O)c1cc2c(=O)n3ccccc3nc2n1C (configuration not stated),> 79 µM (inactive)
2,CCC(=O)OCCNc1cc(SCCC(=O)OC)c2nonc2c1[N+](=O)[O-],> 79 µM (inactive)
3,COc1cccc(-c2nn3c(-c4ccco4)nnc3s2)c1,> 79 µM (inactive)
4,CCCn1c(=O)c(C(=O)NCCc2ccc(Cl)cc2)c(O)c2ccccc21,11 µM
5,COc1ccc(-c2ccc3c(c2)S(=O)(=O)c2cccc(C(=O)N4CCN(c5c(Cl)cncc5Cl)CC4)c2C3=O)cc1OC,> 79 µM (inactive)
6,O=c1[nH]c2cc([N+](=O)[O-])ccc2c2ccccc12,> 79 µM (inactive)
7,Fc1ccc(-c2ccc(-c3nn4c(-c5ccco5)nnc4s3)o2)cc1,> 79 µM (inactive)
8,CCOc1cccc(-c2c(C(=O)N/N=C(\C)c3ccccn3)nnn2-c2nonc2N)c1,> 79 µM (inactive)
9,COc1ccc(-c2csc(NC(=O)c3ccc(OCC(=O)N4CCOCC4)c(OC)c3)n2)cc1OC,> 79 µM (inactive)
10,O=C(Cn1[nH]c(=O)c2ccccc2c1=O)OCC(=O)N1CCc2ccccc2C1,> 79 µM (inactive)
11,O=C(NN=Cc1cccc([N+](=O)[O-])c1)c1cc(-c2cccnc2)nc2ccccc12,> 79 µM (inactive)
12,CC(=O)c1ccc(-c2cnc3c(NC=O)cc(-c4cccc(C(=O)N(C)C)c4)cn23)cc1,14 µM
13,Cc1ccc(-c2n[nH]c(=O)c3ccccc23)cc1S(=O)(=O)NCC1CCCO1 (configuration not stated),> 79 µM (inactive)
14,CCCCn1c(=NC(=O)c2cccnc2)c(C#N)cc2c(=O)n3cccc(C)c3nc21,33.6 µM (inactive)
15,C/C(=N/NC(=O)c1cccs1)c1cccc(NC(=O)C2CC2)c1,> 79 µM (inactive)
16,O=C(CCc1nc2ccccc2c(=O)[nH]1)Nc1ccc(N2CCCCC2)cc1,19.8 µM
17,COc1ccc(N2CC(C(=O)NCc3n[nH]c(=O)c4ccccc34)CC2=O)cc1 (configuration not stated),> 79 µM (inactive)
18,c1ccc2c(c1)nc(Nc1ccc3c(c1)OCO3)c1nnnn12,16.9 µM
19,COC(=O)c1ccc(C(NC(=O)OCc2ccccc2)/C(C)=C/[C@@H](C)C(=O)NCc2ccc(OC)c(OC)c2)cc1 (some centres not stated),22.8 µM
20,COc1cccc(-c2nnc(NC(=O)c3ccc(S(=O)(=O)N(CC(C)C)CC(C)C)cc3)o2)c1,> 79 µM (inactive)
21,COC(=O)C1=C(C)N(CCc2ccc(OC)cc2)C(=O)C1,39.4 µM (inactive)
22,Cc1c(Cl)cnc(NC(=O)COC(=O)c2ccc([N+](=O)[O-])s2)c1Cl,> 79 µM (inactive)
23,COc1cc(/C=N/NC(=O)c2cccnc2)ccc1OCC(=O)Nc1ccccc1Cl,> 79 µM (inactive)
